US12516086B2 (SRI International, priority 2021, dated 2026)
Ends that are not written are not given here.

How the values were obtained:
HT-22 cells = experiment: Receptor recycling: MGS_NOE3_V2-4 uptake with chloroquine or cycloheximide; format: cell-based, mouse; settings: 100 nM MGS_NOE3_V2-4; 100 μM chloroquine or 250 μM cycloheximide; up to 24 h
Method: The cellular receptor for MGS_NOE3_V2-4 is recycled (FIG. 22). HT-22 cells were incubated with culture medium containing 100 nM MGS_NOE3_V2-4 in the presence of 100 μM chloroquine or 250 μM cycloheximide for the indicated times. The cellular uptake was analyzed by flow cytometry. […] New protein synthesis is not required for continued uptake of MGS_NOE3_V2-4. Endosomal acidification is required for continued uptake of MGS_NOE3_V2-4. MGS_NOE3_V2-4 uptake continues with time.
For experiments to determine if the cellular receptor is recycled, cells were treated with peptide in the presence of 100 μM chloroquine or 250 μM cycloheximide. At the indicated time points, the cells were washed and analyzed as described above.

[1] = test system: HT22 cells (mouse hippocampal neuronal cell line); experiment: Peptide uptake by quantitative flow cytometry in HT22 cells; format: cell-based; settings: for Uptake into HT22 cells versus concentration (in words): 1 h at 37° C.
Method: FIG. 26A. […] FIG. 26B. […] FIG. 26C.
(§1) It must be on the tetrameric core to function. […] The number of molecules of peptide internalized per cell was determined by a quantitative flow cytometry assay. […] MGS_NOE3_V1-4 and MGS_NOE3_V2-4 display a 5-6-fold specificity for neurons over astrocytes and 3-fold specificity compared to microglia. […] Incubations were performed for 1 h at 37° C. […] Uptake was determined by flow cytometry assay.
(§2) Peptide concentration and incubation time as well as cell line used is indicated in each figure. […] Cells were removed by trypsinization. Flow cytometry was performed on a BD FACSCelesta, and data were analyzed using FlowJo_v10.8. Cells were gated based on the forward and side scatter to include only viable cells and a minimum of 10,000 events were counted. For absolute peptide uptake per cell, a standard curve was generated using Quantum™ Alexa Fluor 647 microspheres. MFI was determined at 50% at peak height. Molecules internalized per cell were determined by the standard curve relating MESF to MFI and divided by the number dye molecules/MGS conjugate. GraphPad Prism® was used for non-linear regression curve fitting to calculate an EC50.

[2] = human serum (Innovative Research, H6430); settings: 37° C., up to 24 hours
[3] = test system: HT22 and GT1/7 neuronal cell lines vs CTX TNA2 astrocytes and HMC3 microglia; experiment: Uptake of MGS_NOE3 tetramers across cell lines by quantitative flow cytometry; format: cell-based, mouse, rat, human; settings: 200 nM, 1 h
Method: as §1, §2

HT22 cells = experiment: Confocal live cell imaging of internalization into HT22 cells; settings: 200 nM, 37° C., Alexa Fluor 647
Method: Cells were incubated with 200 nM, and the average uptake per cell was determined. […] Alexa Fluor 488 conjugated wheat germ agglutinin was used to label the cell membrane and Hoechst 33342 was used to stain the nucleus. Live cell imaging was performed, and representative images are shown.
AlexaFluor488 conjugated wheat germ agglutinin was used to label the cell membrane and Hoechst 33342 was used to stain the nucleus. Live cell imaging was performed, and representative images are shown.
The test cells were seeded in 35 mm confocal microscopy dish 24 hours prior to treatment. The test peptides labeled with Alexa Fluor 647 were incubated on cells in media for the indicated time at 37° C. After incubation, the cells were washed 3 times with PBS, 2 times with 0.1 M HCl-glycine pH 2.2 in 0.9% NaCl and 1 time with PBS. Alexa Fluor 488 conjugated wheat germ agglutinin was used to label the cell membrane and Hoechst 33342 was used to stain the nucleus. Microscopy was acquired on a Zeiss LSM 700 with a Pln Apo 63×/1.4 oil DIC III objective. Images were processed using Zen software.
For peptides that were biotinylated instead of direct labeling with Alexa Fluor 647, the peptide-SA-AF647 conjugate was prepared by mixing Alexa Fluor™ 647 conjugated streptavidin and biotinylated peptide with an equal molecular ratio in 100 μl PBS for 30 minutes at room temperature. […]

brain cells = experiment: Brain cell association after intrathecal injection, flow cytometry; format: in vivo, C57BL/6 mouse; settings: Alexa Fluor 647 label, 1 hr circulation, compared to naïve animals
Excerpt: (A) Gating strategy for total brain cells vs debris. (B) Gating strategy excluding cell doublets. FIG. 24C indicates the fluorescent intensity of MGS_NOE3-V2-4 internalized into brain cells following intrathecal injection compared to naïve animals.
MGS_NOE3-V2-4 was labeled with Alexa Fluor 647 and injected intrathecally in a C57BL/6 mouse. After the peptide circulated for 1 hr, the animal was euthanized, and the brain tissue was harvested. The whole brain was subsequently dissociated using the Miltenyi Biotec gentleMACS Octo Dissociator. The number of MGS_NOE3_V2-4 molecules internalized into brain cells were analyzed by flow cytometry (BD FACSCelesta).
Alternatively, all CNS cells were analyzed as a mixture by dissociating the brain using the Miltenyi Biotec gentleMACS Octo Dissociator. No enrichment for a CNS subpopulation was performed and cells were directly analyzed by flow cytometry. Gating was used to eliminate cell debris and cell doublets.

[4] = test system: HMC3 cells (human microglia cell line); experiment: Peptide uptake by quantitative flow cytometry in HMC3 cells; format: cell-based
Method: Under both cell states, an average of ˜60,000 molecules of MGS2_V4-2 were internalized. […] All cell lines were incubated with MGS2_V4-2 at 25 nM for 1 hour at 37° C.
Cells were incubated at the indicated concentration of each peptide construct that had been labeled with Alexa Fluor 647. After 1 h incubation at 37° C., uptake was determined by quantitative flow cytometry. […] Thus, uptake is mediated by the MGS not the MTS.
However, binding was rescued by using the tetrameric MGS2_V4-4 as the targeting peptide in this multifunctional chimera (shown in panel A).
as §2
HMC3 cells were activated with interferon-gamma (IFN-γ) (10 ng/ml, 24 h). Resting phenotype was characterized by expression of IBA1, and endotoxin receptor CD14, but negative for the astrocyte marker GFAP. […] In Vivo MTS and MTS-MGS Targeting Experiments

[5] = target: Recombinant human transferrin receptor (Homo sapiens, UniProt P02786); experiment: ELISA binding to plate-absorbed transferrin receptor; settings: receptor at 1 μg/mL, biotinylated peptide at varying concentrations, 1 h
Method: Recombinant human transferrin receptor was absorbed onto high binding ELISA plates at 1 μg/mL. […] Retained MTS peptide was detected using streptavidin-HRP and TMB reagent. The absorbance was measured at 450 nm and is proportional to the amount of MTS peptide captured by transferrin receptor. […] By comparison, MTS3_V1-2 and a scrambled control peptide of MTS2_V1-2 show no binding. The binding affinity of MTS2_V1-2 for transferrin receptor was determined by biolayer interferometry on a OctetRED 96 system. The biotinylated MTS2_V1-2 peptide was captured on streptavidin probe. The kon and koff rate were determined at various concentrations of human or mouse transferrin receptor allowing for determination of the dissociation constant.

[6] = rat, in vivo
Method: MTS variants labeled with the near infrared dye Alexa Fluor 750 were injected into the tail vein of Sprague Dawley rats at 1 μg MTS/kg rat body weight. At the indicated time, CSF was isolated via capillary puncture of the cisterna magna. […] To assure the fatty acid is not driving the transport into the CNS, a control peptide scMTS3_V2-2 which contains the MTS3 amino acid composition but with a scrambled sequence was lipidated.
The MTS peptide directly conjugated to Alexa Fluor 750 dye (1 μg/g body weight) is injected via lateral tail vein into a Sprague-Dawley Rat and allowed to circulate for the indicated time (20 min, 1 h 6 h, 24 h). The animal is anesthetized 10 mins prior to the end of the time point and 2 mL 200× Heparinized Saline is injected intraperitoneally. To collect the CSF, a blunt dissection of the back of the neck is performed to expose the clear dura mater covering the cisterna magna. Using a glass micropipette, CSF is aspirated from the cisterna magna at the indicated time point. Following CSF collection, a transcardial perfusion is performed by flushing with 500 mL ice cold 1× PBS containing heparin to remove any blood from the body. The brain and other tissues are isolated. The brain is homogenized using a Dounce homogenizer in lysis buffer (30 mM Tris-HCl, pH 8.0 0.05% Triton X-100) and the soluble fraction collected. […]

[7] = rat, in vivo; remark: listed apart in the source
Method: Coronal slices are 1 mm and arranged from the front (upper left) to back (lower right).
Coronal slices of 1 mm thickness are prepared using a brain matrix. The slices are imaged on an Odyssey Imager collecting fluorescent signal at 800 nm.

[8] = Serum stability (RP-HPLC of Alexa Fluor 647 labeled peptide); format: in vitro ADME; settings: 37° C., 24 h
Method: MGS2_V4-2 labeled with Alex Fluor 647 was incubated in human serum at 37° C. At the indicated times, an aliquot was removed, serum proteins were precipitated, and the resultant supernatant was analyzed by reverse phase HPLC monitoring the absorbance at 650 nm. Chromatograms for each time point are shown. Intact peptide has a retention time at 11.864. […] Peaks were integrated to determine the percentage of intact peptide as well as the amount of observed degradation product. At 24 h, >75% of the MGS2_V4-2 is still intact. Electrospray mass spectrometry was performed on the peptide product arising at the 10.005 min retention time. The mass of this new species corresponds to the loss of the 3 amino acids on both branches of MGS2_V4-2.
The concentration of a solution of peptide conjugated with dye (Alexa Fluor 647) was determine by absorbance at 651 nm and ˜14 nmol of peptide was lyophilized. The lyophilized peptide powder was dissolved in 400 μL of human serum (Innovative Research, H6430) to achieve a 35 μM solution. The sample was incubated at 37° C. and shaken. For each time point (0, 1, 2, 4, 20 and 24 hours), a 50 μL aliquot was removed from the reaction and 100 μL of absolute ethanol was added to precipitate serum proteins. Samples were incubated on ice for 15 mins before being centrifuged at 12,000 rpm for 5 mins. […] Finally, 100 μL of each sample were analyzed by analysis RP-HPLC.

Chain of Recombinant human transferrin receptor (P02786 whole entry): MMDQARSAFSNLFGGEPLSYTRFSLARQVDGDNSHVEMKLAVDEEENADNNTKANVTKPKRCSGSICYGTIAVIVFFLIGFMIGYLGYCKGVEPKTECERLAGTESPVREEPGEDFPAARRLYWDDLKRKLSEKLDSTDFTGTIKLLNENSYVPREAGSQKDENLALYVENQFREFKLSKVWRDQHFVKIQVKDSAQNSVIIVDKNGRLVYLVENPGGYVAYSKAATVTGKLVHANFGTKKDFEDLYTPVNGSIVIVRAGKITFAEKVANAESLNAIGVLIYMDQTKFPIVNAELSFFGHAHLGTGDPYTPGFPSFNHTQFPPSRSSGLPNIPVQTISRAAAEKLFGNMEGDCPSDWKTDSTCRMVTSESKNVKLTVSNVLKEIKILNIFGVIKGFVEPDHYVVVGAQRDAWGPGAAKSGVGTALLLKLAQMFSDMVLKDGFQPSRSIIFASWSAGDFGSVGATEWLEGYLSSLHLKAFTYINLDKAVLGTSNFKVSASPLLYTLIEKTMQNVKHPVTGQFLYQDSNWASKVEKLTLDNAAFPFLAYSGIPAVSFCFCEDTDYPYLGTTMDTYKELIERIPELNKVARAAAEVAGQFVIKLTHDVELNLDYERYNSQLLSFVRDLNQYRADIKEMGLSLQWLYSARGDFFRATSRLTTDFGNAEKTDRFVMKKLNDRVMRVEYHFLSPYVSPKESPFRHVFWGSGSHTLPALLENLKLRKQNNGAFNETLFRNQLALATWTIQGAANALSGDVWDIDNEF

Molecule: C[C@@H]1C[C@@H]([C@H](O)CC2CC(=O)NC(=O)C2)C(=O)[C@@H](C)C1 [Cycloheximide]
- Effect on MGS_NOE3_V2-4 uptake (HT-22 cells): no impact on MGS_NOE3_V2-4 uptake

Molecule: CCN(CC)CCCC(C)Nc1ccnc2cc(Cl)ccc12 (stereo not shown) [chloroquine]
- Effect on MGS_NOE3_V2-4 uptake (HT-22 cells): greatly reduces uptake

Molecule: Ac-GFHNVYPYTWGGFSDIDLMADEI [MGS_NOE3_V2]
- Uptake into HT22 cells versus concentration (in words) [1]: no uptake was observed on HT22 cells

Molecule: Ac-YAAWPASGAWT
- fragment found [2]: loss of the 3 amino acids on both branches of MGS2_V4-2, 1 h

Molecule: MGS_NOE3_V1-4: tetrameric version of GFHNVYPYTWGGFSDIDLMADEI (SEQ ID NO:1) (also: tetrameric construct on a core linker)
- Specificity for neurons compared to microglia [3]: 3 fold

Molecule: MGS_NOE3_V2-2 (Ac-GFHNVYPYTWGGFSDIDLMADEI; also: dimer)
- Uptake into HT22 cells versus concentration (in words) [1]: no uptake was observed on HT22 cells

Molecule: MGS_NOE3_V2-4: tetrameric version of Ac-GFHNVYPYTWGGFSDIDLMADEI (SEQ ID NO:5) (also: tetrameric construct)
- Internalization into HT22 cells by confocal live cell imaging (HT22 cells): internalized into neuronal cells
- Association with brain cells after intrathecal injection (brain cells): associated with cells in the CNS after intrathecal injection
- Specificity for neurons compared to microglia [3]: 3 fold
- Uptake into HT22 cells over time (in words) ([1]; 200 nM, 37° C.): increases over time
- Uptake into HT22 cells versus concentration (in words) [1]: increases with increasing concentration
- Intracellular concentration reached ([1]; uptake to at least 24 H): ≈ 1 μM

Molecule: MTS3_V1-2 (Ac-SKETYSMNAQRQHERS; also: dimer)
- Cellular uptake in HMC3 cells (in words) ([4]; 1 h at 37° C., quantitative flow cytometry): no significant cellular uptake at any of the concentrations tested
- Binding to transferrin receptor in ELISA (absorbance at 450 nm) [5]: no binding

Molecule: MTS3_V2-2 (Ac-SKETYSMNAQRQHERS; also: dimer, C16 fatty acid)
- Transport into the brain parenchyma, fold higher than nonmodified MTS3_V1-2 [6]: 10-12 fold
- Transport into the brain parenchyma, fold higher than scrambled control scMTS3_V2-2 [6]: 17-31 fold
- Brain uptake by fluorescent imaging of 1 mm coronal slices [7]: increased brain uptake compared to MTS3_V1-2 at all time points

Molecule: dimer version of MTS2_V1, Ac-FPSWTSKNQQWTNQRQ (also: dimer) [MTS2_V1-2]
- Binding to transferrin receptor in ELISA (absorbance at 450 nm) [5]: binds to human transferrin in a concentration dependent manner which saturates at higher concentrations

Molecule: dimeric form of MGS2_V4, Ac-YAAWPASGAWT (SEQ ID NO:8) [MGS2_V4-2]
- Uptake in HMC3 cells versus other CNS cell lines (specificity) ([4]; 25 nM, 1 hour at 37° C., versus neuronal cells, Schwann cell, astrocytes): significantly higher in HMC3 cells than other cells of the central nervous system
- Molecules internalized (average) ([4]; HMC3 cells of resting or activated phenotype, 1 hour): ~60,000 molecules
- EC50 ([4]; HMC3 cells, 1 h at 37° C., read-out: EC50 (half maximal uptake)): 7.3 nM
- Intact peptide in human serum [8]: > 75%
